This note sets out measurements from patent publication US10758534B2 (Vertex Pharmaceuticals Incorporated, priority 2014, dated 2020).

T1 sequence (P13569 with tags, fused parts or gaps DEL508-508): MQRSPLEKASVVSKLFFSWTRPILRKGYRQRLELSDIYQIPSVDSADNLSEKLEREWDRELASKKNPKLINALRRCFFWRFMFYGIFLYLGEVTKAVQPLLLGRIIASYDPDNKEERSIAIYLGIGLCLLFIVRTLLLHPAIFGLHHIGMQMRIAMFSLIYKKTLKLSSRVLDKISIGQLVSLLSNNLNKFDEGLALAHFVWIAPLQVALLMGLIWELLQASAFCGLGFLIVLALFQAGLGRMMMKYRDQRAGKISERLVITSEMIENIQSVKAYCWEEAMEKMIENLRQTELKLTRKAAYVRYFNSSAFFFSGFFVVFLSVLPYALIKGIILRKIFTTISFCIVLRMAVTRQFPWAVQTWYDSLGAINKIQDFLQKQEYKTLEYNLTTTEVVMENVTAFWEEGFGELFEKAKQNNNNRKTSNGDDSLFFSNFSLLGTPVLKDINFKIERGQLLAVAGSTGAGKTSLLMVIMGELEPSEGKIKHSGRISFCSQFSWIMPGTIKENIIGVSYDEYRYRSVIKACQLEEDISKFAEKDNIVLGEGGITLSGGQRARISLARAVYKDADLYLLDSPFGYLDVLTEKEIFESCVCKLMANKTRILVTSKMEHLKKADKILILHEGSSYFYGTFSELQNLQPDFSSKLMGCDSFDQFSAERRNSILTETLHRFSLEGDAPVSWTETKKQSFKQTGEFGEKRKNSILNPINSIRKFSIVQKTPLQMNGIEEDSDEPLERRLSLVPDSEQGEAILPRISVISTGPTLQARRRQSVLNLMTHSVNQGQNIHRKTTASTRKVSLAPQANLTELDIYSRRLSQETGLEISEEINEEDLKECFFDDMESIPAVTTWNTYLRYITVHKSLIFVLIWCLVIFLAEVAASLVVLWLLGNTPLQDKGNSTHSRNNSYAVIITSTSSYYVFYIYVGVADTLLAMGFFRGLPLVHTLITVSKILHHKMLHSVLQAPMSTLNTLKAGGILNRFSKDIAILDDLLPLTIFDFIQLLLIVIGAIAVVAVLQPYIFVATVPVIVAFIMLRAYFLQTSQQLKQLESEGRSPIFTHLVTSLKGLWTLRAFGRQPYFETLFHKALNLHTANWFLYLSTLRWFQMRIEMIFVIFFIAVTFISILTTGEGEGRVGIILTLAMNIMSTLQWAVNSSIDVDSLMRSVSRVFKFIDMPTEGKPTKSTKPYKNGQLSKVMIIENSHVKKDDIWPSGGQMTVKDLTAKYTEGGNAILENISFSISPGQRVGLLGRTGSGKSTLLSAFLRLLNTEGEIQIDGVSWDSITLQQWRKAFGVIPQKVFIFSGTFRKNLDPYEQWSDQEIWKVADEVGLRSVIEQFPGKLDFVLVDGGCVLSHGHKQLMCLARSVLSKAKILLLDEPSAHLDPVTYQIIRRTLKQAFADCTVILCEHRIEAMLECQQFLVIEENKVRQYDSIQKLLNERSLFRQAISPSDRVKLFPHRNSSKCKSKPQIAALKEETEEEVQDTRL

The first assay has as its target T1, F508del (Homo sapiens, UniProt P13569, DEL508-508).
T1 construct: expressed in transfected cells
The assay can be described thus: Protocol 2: FRET membrane potential optical assay (VIPR), identification of correction compounds. It counts as cell-based. The settings on record: F508del CFTR modulator activity; compounds of Table 1; read-out: EC30. An excerpt:
Membrane potential optical methods for assaying F508del modulation properties of compounds.
These voltage sensitive assays are based on the change in fluorescence resonant energy transfer (FRET) between the membrane-soluble, voltage-sensitive dye, DiSBAC2(3), and a fluorescent phospholipid, CC2-DMPE, which is attached to the outer leaflet of the plasma membrane and acts as a FRET donor. Changes in membrane potential (Vm) cause the negatively charged DiSBAC2(3) to redistribute across the plasma membrane and the amount of energy transfer from CC2-DMPE changes accordingly. The changes in fluorescence emission were monitored using VIPR™ II, which is an integrated liquid handler and fluorescent detector designed to conduct cell-based screens in 96- or 384-well microtiter plates.
To identify small molecules that correct the trafficking defect associated with F508del; a single-addition HTS assay format was developed. The cells were incubated in serum-free medium for 16 hrs at 37° C. in the presence or absence (negative control) of test compound. As a positive control, cells plated in 384-well plates were incubated for 16 hrs at 27° C. to “temperature-correct” F508del. The cells were subsequently rinsed 3× with Krebs Ringers solution and loaded with the voltage-sensitive dyes. To activate F508del, 10 μM forskolin and the CFTR potentiator, genistein (20 μM), were added along with Cl^−-free medium to each well. The addition of Cl^−-free medium promoted Cl^− efflux in response to F508del activation and the resulting membrane depolarization was optically monitored using the FRET-based voltage-sensor dyes.
• Bath Solution #1: (in mM) NaCl 160, KCl 4.5, CaCl2 2, MgCl2 1, HEPES 10, pH 7.4 with NaOH. • Chloride-free bath solution: Chloride salts in Bath Solution #1 (above) are substituted with gluconate salts. • CC2-DMPE: Prepared as a 10 mM stock solution in DMSO and stored at −20° C. • DiSBAC2(3): Prepared as a 10 mM stock in DMSO and stored at −20° C. Cell Culture
NIH3T3 mouse fibroblasts stably expressing F508del are used for optical measurements of membrane potential. The cells are maintained at 37° C. in 5% CO2 and 90% humidity in Dulbecco's modified Eagle's medium supplemented with 2 mM glutamine, 10% fetal bovine serum, 1×NEAA, β-ME, 1× pen/strep, and 25 mM HEPES in 175 cm^2 culture flasks. For all optical assays, the cells were seeded at 30,000/well in 384-well matrigel-coated plates and cultured for 2 hrs at 37° C. before culturing at 27° C. for 24 hrs for the potentiator assay. For the correction assays, the cells are cultured at 27° C. or 37° C. with and without compounds for 16-24 hours.
For orientation: EC30 means the point of the concentration-response curve where the effect stands at 30%. Turning to `CC[C@@H](C)Oc1ccn(-c2ccc(C(=O)NS(=O)(=O)c3cccnc3N)c(N3C[C@@H](C)CC3(C)C)n2)n1` [Compound 2704], the 30% effect concentration (EC30) is less than 3000 nM.

Consider `C[C@@H]1CN(c2nc(-c3cc(F)cc(F)c3)ccc2C(=O)NS(=O)(=O)c2cccc(N)n2)C(C)(C)C1` [Compound 2236, N-[(6-amino-2-pyridyl)sulfonyl]-6-(3,5-difluorophenyl)-2-[(4S)-2,2,4-trimethylpyrrolidin-1-yl]pyridine-3-carboxamide], for which the EC30 is less than 3000 nM.

For `Cc1ccc(F)cc1-c1ccc(C(=O)NS(=O)(=O)c2cccnc2N)c(N2C[C@@H](C)CC2(C)C)n1` [Compound 2660, N-[(2-amino-3-pyridyl)sulfonyl]-6-(5-fluoro-2-methyl-phenyl)-2-[(4S)-2,2,4-trimethylpyrrolidin-1-yl]pyridine-3-carboxamide], the concentration for an effect of 30% (EC30) is less than 3000 nM.

Take `COc1ccc(COc2cccc(S(=O)(=O)NC(=O)c3ccc(C(C)(C)C)nc3N3CC(C)CC3(C)C)n2)cc1` (stereo not shown) [Compound 2713]: the concentration for an effect of 30% (EC30) is less than 3000 nM.

Consider `C[C@@H]1CN(c2nc(C3CC(C)(C)CCC3O)ccc2C(=O)NS(=O)(=O)c2cccnc2N)C(C)(C)C1` (stereo partly drawn) [Compound 2047, N-[(2-amino-3-pyridyl)sulfonyl]-6-(2-hydroxy-5,5-dimethyl-cyclohexyl)-2-[(4S)-2,2,4-trimethylpyrrolidin-1-yl]pyridine-3-carboxamide], for which the 30% effect concentration (EC30) fell in the range of 3000 to 10000 nM.

In the case of `CC1CN(c2ncc(-c3ccccc3OC(C)C)cc2C(=O)NS(=O)(=O)c2cccc(N)n2)C(C)(C)C1` (stereo not shown) [Compound 2283, N-[(6-amino-2-pyridyl)sulfonyl]-5-(2-isopropoxyphenyl)-2-(2,2,4-trimethylpyrrolidin-1-yl)pyridine-3-carboxamide], the EC30 was less than 3000 nM.

`CCOc1cccc(S(=O)(=O)NC(=O)c2cccnc2N2CC(C)CC2(C)C)n1` (stereo not shown) [Compound 2617, N-[(6-ethoxy-2-pyridyl)sulfonyl]-2-(2,2,4-trimethylpyrrolidin-1-yl)pyridine-3-carboxamide]: the EC30 fell in the range of 3000 to 10000 nM.

For `COc1ccc(-c2ccc(C(=O)NS(=O)(=O)c3ccc[nH]c3=O)c(N3C[C@@H](C)CC3(C)C)n2)cc1C` [Compound 2369, 6-(4-methoxy-3-methyl-phenyl)-N-[(2-oxo-1H-pyridin-3-yl)sulfonyl]-2-[(4S)-2,2,4-trimethylpyrrolidin-1-yl]pyridine-3-carboxamide], the 30% effect concentration (EC30) was less than 3000 nM.

Regarding `Cc1ccc(CCNc2cccc(S(=O)(=O)NC(=O)c3cccnc3N3CC(C)CC3(C)C)n2)cc1` (stereo not shown) [Compound 2502, N—[[6-[2-(p-tolyl)ethylamino]-2-pyridyl]sulfonyl]-2-(2,2,4-trimethylpyrrolidin-1-yl)pyridine-3-carboxamide], the EC30 is less than 3000 nM.

As for `COc1ncc(-c2ccc(C(=O)NS(=O)(=O)c3cccnc3N)c(N3C[C@@H](C)CC3(C)C)n2)c(OC)n1` [Compound 2008, N-[(2-amino-3-pyridyl)sulfonyl]-6-(2,4-dimethoxypyrimidin-5-yl)-2-[(4S)-2,2,4-trimethylpyrrolidin-1-yl]pyridine-3-carboxamide], the 30% effect concentration (EC30) was in the range of 3000 to 10000 nM.

As to `COc1ccc(-c2ccc(C(=O)NS(=O)(=O)c3cccnc3N)c(N3C[C@@H](C)CC3(C)C)n2)c(C)c1C` [Compound 2450, N-[(2-amino-3-pyridyl)sulfonyl]-6-(4-methoxy-2,3-dimethyl-phenyl)-2-[(4S)-2,2,4-trimethylpyrrolidin-1-yl]pyridine-3-carboxamide], the concentration for an effect of 30% (EC30) was less than 3000 nM.

The same assay, now with this note: Table 3; compounds of Table 1 as modulators of CFTR activity; protocol not stated.
For the compound `COc1ncc(-c2ccc(C(=O)NS(=O)(=O)c3cccc(N)n3)c(Oc3c(C)cc(C)cc3C)n2)cn1` [Compound 449, N-[(6-amino-2-pyridyl)sulfonyl]-6-(2-methoxypyrimidin-5-yl)-2-(2,4,6-trimethylphenoxy)pyridine-3-carboxamide], the EC30 entry is “+ (“+” means greater than 10 uM)”.

For `Cc1cc(C)c(CN2CCc3ccccc3CC2C(=O)NS(=O)(=O)c2ccc[nH]c2=O)c(C)c1` (stereo not shown) [Compound 662, N-[(2-oxo-1H-pyridin-3-yl)sulfonyl]-3-[(2,4,6-trimethylphenyl)methyl]-1,2,4,5-tetrahydro-3-benzazepine-4-carboxamide], the concentration for an effect of 30% (EC30) entry is given as “+ (“+” means greater than 10 uM)”.

`CC(C)Oc1ccc(-c2ccc(C(=O)NS(=O)(=O)c3cccc(N)n3)c(N3CCC4(CCC4)CC3)n2)cn1` [Compound 733, N-[(6-amino-2-pyridyl)sulfonyl]-2-(7-azaspiro[3.5]nonan-7-yl)-6-(6-isopropoxy-3-pyridyl)pyridine-3-carboxamide]: the concentration for an effect of 30% (EC30) result is “+++ (“+++” means <3 uM)”.

Regarding `Cc1cccc(C)c1Cn1nc(-c2ccc(F)cc2)cc1C(=O)NS(=O)(=O)c1ccccc1` [Compound 333, N-(benzenesulfonyl)-2-[(2,6-dimethylphenyl)methyl]-5-(4-fluorophenyl)pyrazole-3-carboxamide], the 30% effect concentration (EC30) result is given as “+++ (“+++” means <3 uM)”.

For the compound `Cc1cc(C)c(Cn2c(C(=O)NS(=O)(=O)c3cccc(N)c3)cc3cccc(C)c32)c(C)c1` [Compound 194, N-(3-aminophenyl)sulfonyl-7-methyl-1-[(2,4,6-trimethylphenyl)methyl]indole-2-carboxamide], the 30% effect concentration (EC30) entry is recorded as “+++ (“+++” means <3 uM)”.

On to `CC(C)COc1cc(F)cc(-c2ccc(C(=O)NS(=O)(=O)c3ccn[nH]3)c(N3CCC[C@@H](C)C3)n2)c1` [Compound 668, 6-(3-fluoro-5-isobutoxy-phenyl)-2-[(3R)-3-methyl-1-piperidyl]-N-(1H-pyrazol-5-ylsulfonyl)pyridine-3-carboxamide], for which the EC30 result is “+++ (“+++” means <3 uM)”.

Consider `CC(C)(C)c1cc(C(=O)NS(=O)(=O)c2ccccc2)n(Cc2cc(C(F)(F)F)ccc2F)n1` [Compound 35, N-(benzenesulfonyl)-5-tert-butyl-2-[[2-fluoro-5-(trifluoromethyl)phenyl]methyl]pyrazole-3-carboxamide], for which the concentration for an effect of 30% (EC30) result is “+++ (“+++” means <3 uM)”.

For `Cc1cc(C)c(Oc2nc(-c3cc(C(F)(F)F)nn3C)ccc2C(=O)NS(=O)(=O)c2cccc(N)n2)c(C)c1` [Compound 457, N-[(6-amino-2-pyridyl)sulfonyl]-6-[2-methyl-5-(trifluoromethyl)pyrazol-3-yl]-2-(2,4,6-trimethylphenoxy)pyridine-3-carboxamide], the EC30 result is on record as “+++ (“+++” means <3 uM)”.

Regarding `Cc1cc(C)c(Oc2nc(-c3cnc(C(C)C)nc3)ccc2C(=O)NS(=O)(=O)c2cccc(N)n2)c(C)c1` [Compound 64, N-[(6-amino-2-pyridyl)sulfonyl]-6-(2-isopropylpyrimidin-5-yl)-2-(2,4,6-trimethylphenoxy)pyridine-3-carboxamide], the EC30 result is “++ (“++” means between 3 uM and 10 uM)”.

Turning to `Cc1cc(C)c(Oc2nc(C(C)(C)C)ccc2C(=O)NS(=O)(=O)c2cccc(=O)[nH]2)c(C)c1` [Compound 305, 6-tert-butyl-N-[(6-oxo-1H-pyridin-2-yl)sulfonyl]-2-(2,4,6-trimethylphenoxy)pyridine-3-carboxamide], the EC30 entry is “+++ (“+++” means <3 uM)”.

In the case of `Cc1cc(C)c(CN2CCc3ccccc3C2C(=O)NS(=O)(=O)c2cccc(N)c2)c(C)c1` (stereo not shown) [Compound 309, N-(3-aminophenyl)sulfonyl-2-[(2,4,6-trimethylphenyl)methyl]-3,4-dihydro-1H-isoquinoline-1-carboxamide], the 30% effect concentration (EC30) entry is “+++ (“+++” means <3 uM)”.

Consider `Cc1cc(C)c(Oc2nc(C(C)(C)C)ncc2C(=O)NS(=O)(=O)c2cccc(N)c2)c(C)c1` [Compound 68, N-(3-aminophenyl)sulfonyl-2-tert-butyl-4-(2,4,6-trimethylphenoxy)pyrimidine-5-carboxamide], for which the EC30 result was “+++ (“+++” means <3 uM)”.

Turning to `Cc1ccc(-c2cc(C(=O)NS(=O)(=O)c3ccccc3)n(Cc3c(C)cccc3C)n2)cc1` [Compound 199, N-(benzenesulfonyl)-2-[(2,6-dimethylphenyl)methyl]-5-(p-tolyl)pyrazole-3-carboxamide], the concentration for an effect of 30% (EC30) result is “+++ (“+++” means <3 uM)”.

On to `CC(C)COc1cc(F)cc(-c2ccc(C(=O)NS(=O)(=O)c3ccn[nH]3)c(N3CCC4(CC3)OCc3ccccc34)n2)c1` [Compound 506, 6-(3-fluoro-5-isobutoxy-phenyl)-N-(1H-pyrazol-5-ylsulfonyl)-2-spiro[1H-isobenzofuran-3,4′-piperidine]-1′-yl-pyridine-3-carboxamide], for which the 30% effect concentration (EC30) entry is reported as “+++ (“+++” means <3 uM)”.
